Molecular target: T1, NctB (Shinella sp. HZN7, UniProt A0A075BSX9)
T1 construct: synthetic gene in pET29b (NdeI/XhoI), C-terminal His tag, expressed in E. coli BL21(DE3); FAD-containing flavoenzyme
Assay: absorbance spectra before and after SDS/heat release of FAD
Format: binding
Conditions: pH 7.5; prosthetic group co-purified with the enzyme

T1 sequence (A0A075BSX9 whole entry): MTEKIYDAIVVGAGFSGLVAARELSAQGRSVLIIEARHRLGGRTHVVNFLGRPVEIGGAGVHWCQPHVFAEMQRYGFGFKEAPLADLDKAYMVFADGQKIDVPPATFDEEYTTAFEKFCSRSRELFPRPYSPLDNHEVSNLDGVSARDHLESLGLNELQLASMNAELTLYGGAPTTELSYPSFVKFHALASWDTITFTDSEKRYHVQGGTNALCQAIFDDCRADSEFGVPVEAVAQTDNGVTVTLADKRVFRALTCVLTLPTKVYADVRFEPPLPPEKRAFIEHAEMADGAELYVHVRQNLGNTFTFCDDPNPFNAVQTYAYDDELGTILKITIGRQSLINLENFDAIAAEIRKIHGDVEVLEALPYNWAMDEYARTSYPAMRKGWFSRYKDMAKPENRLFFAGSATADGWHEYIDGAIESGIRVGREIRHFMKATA

Cc1cc2nc3c(=O)[nH]c(=O)nc-3n(C[C@H](O)[C@H](O)[C@H](O)COP(=O)(O)OP(=O)(O)OC[C@H]3O[C@@H](n4cnc5c(N)ncnc54)[C@H](O)[C@@H]3O)c2cc1C [flavin adenine dinucleotide]
absorbance spectra before and after SDS/heat release of FAD: The extinction coefficient of FAD bound to NctB was then calculated
